Drawing on PubChem BioAssay AID256 (DTP/NCI, 2004), this text covers T/C for 23 molecules.

This assay has as its system CD2F1 mice, L1210 leukemia ip, survival T/C. The assay can be described thus: NCI In Vivo Anticancer Drug Screen. Data for tumor model L1210 Leukemia (intraperitoneal) in CD2F1 (CDF1) mice. To be noted: higher = longer survival. The procedure, abridged: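 Tumor-bearing mice (transplanted tumor) were split into treated and vehicle control groups, and the measured endpoint of each treated group was divided by that of its vehicle controls.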

Where [1] appears, read: endpoint: mean survival time, dose: 25.0 mg/kg/injection, schedule: Q01DX009 (ip), vehicle: saline with Tween-80.
Where [2] appears, read: endpoint: mean survival time, dose: 50.0 mg/kg/injection, schedule: Q01DX009 (ip), vehicle: saline with Tween-80.
[3] abbreviates: endpoint: mean survival time, dose: 100.0 mg/kg/injection, schedule: Q01DX001 (ip), vehicle: saline with Tween-80.
Setting [4] is: endpoint: mean survival time, dose: 100.0 mg/kg/injection, schedule: Q04DX003 (ip), vehicle: saline with Tween-80.
Where [5] appears, read: endpoint: mean survival time, dose: 200.0 mg/kg/injection, schedule: Q01DX001 (ip), vehicle: saline with Tween-80.
Setting [6] is: endpoint: mean survival time, dose: 200.0 mg/kg/injection, schedule: Q01DX009 (ip), vehicle: saline with Tween-80.
Where [7] appears, read: endpoint: mean survival time, dose: 400.0 mg/kg/injection, schedule: Q01DX001 (ip), vehicle: saline with Tween-80.
The mark [8] stands for this setting: endpoint: mean survival time, dose: 400.0 mg/kg/injection, schedule: Q01DX009 (ip), vehicle: saline with Tween-80.
Where [9] appears, read: endpoint: mean survival time, dose: 100.0 mg/kg/injection, schedule: Q04DX002 (ip), vehicle: saline with Tween-80.
Setting [10] is: endpoint: mean survival time, dose: 400.0 mg/kg/injection, schedule: Q04DX002 (ip), vehicle: saline with Tween-80.
The mark [11] stands for this setting: endpoint: mean survival time, dose: 100.0 mg/kg/injection, schedule: Q04DX003 (ip), vehicle: saline.
Setting [12] is: endpoint: mean survival time, dose: 75.0 mg/kg/injection, schedule: Q01DX001 (ip), vehicle: saline.
Setting [13] is: endpoint: mean survival time, dose: 150.0 mg/kg/injection, schedule: Q01DX001 (ip), vehicle: saline.
The mark [14] stands for this setting: endpoint: mean survival time, dose: 100.0 mg/kg/injection, schedule: Q01DX001 (ip), vehicle: saline.
The mark [15] stands for this setting: endpoint: mean survival time, dose: 200.0 mg/kg/injection, schedule: Q01DX001 (ip), vehicle: saline.
Setting [16] is: endpoint: mean survival time, dose: 100.0 mg/kg/injection, schedule: Q01DX009 (ip), vehicle: saline with Tween-80.
Setting [17] is: endpoint: mean survival time, dose: 200.0 mg/kg/injection, schedule: Q04DX003 (ip), vehicle: saline with Tween-80.
The mark [18] stands for this setting: endpoint: mean survival time, dose: 400.0 mg/kg/injection, schedule: Q04DX003 (ip), vehicle: saline with Tween-80.
The mark [19] stands for this setting: endpoint: mean survival time, dose: 200.0 mg/kg/injection, schedule: Q04DX003 (ip), vehicle: saline.

Several values for one entry are separate records, joined by “and”; a condition that tells them apart may be missing. Equal entries are not always repeated. Inconclusive results and toxic doses are left out.

In the case of `CCOc1ccc(-n2c(-c3ccc(Br)cc3)csc2=NC(=O)c2ccccc2F)cc1`, the T/C by setting is: under setting [1], 92 % of control and 100 % of control; (endpoint: mean survival time, dose: 25.0 mg/kg/injection, schedule: Q04DX003 (ip), vehicle: saline with Tween-80) 88 % of control; under setting [2], 88 % of control; (endpoint: mean survival time, dose: 50.0 mg/kg/injection, schedule: Q04DX003 (ip), vehicle: saline with Tween-80) 94 % of control; under setting [3], 93 % of control; under setting [4], 92 % of control and 95 % of control. Moreover, the T/C is 91 % of control under setting [5]; 88 % of control and 90 % of control under setting [6]; 95 % of control under setting [7]; 90 % of control under setting [8].
On to `CCCCOP(=O)(OCCCC)C(CCC)OP(OC(CCC)P(=O)(OCCCC)OCCCC)OC(CCC)P(=O)(OCCCC)OCCCC` (stereo not given), for which the T/C (endpoint: mean survival time, dose: 100.0 mg/kg/injection, schedule: Q04DX002 (ip), vehicle: saline) was 103 % of control; the T/C (endpoint: mean survival time, dose: 200.0 mg/kg/injection, schedule: Q04DX002 (ip), vehicle: saline) is 89 % of control; the T/C (endpoint: mean survival time, dose: 400.0 mg/kg/injection, schedule: Q04DX002 (ip), vehicle: saline) was 97 % of control.
Regarding `CC(=Nc1ccccc1)C1=C(O)C(Cc2cccc(F)c2)NC1=O` (stereo not given), the T/C by setting is: under setting [9], 116 % of control; under setting [10], 103 % of control.
Take `Cc1ccc(S(=O)(=O)OCC(O)C(O)C(O)C(C)O)cc1` (stereo not given): the T/C is, setting by setting: under setting [3], 98 % of control; under setting [5], 98 % of control; under setting [7], 102 % of control.
`c1cc[c]([Pb]([c]2ccccc2)([c]2ccccc2)[n]2cccc2)cc1`: the T/C is 96 % of control (endpoint: mean survival time, dose: 6.25 mg/kg/injection, schedule: Q01DX009 (ip), vehicle: acetone); 88 % of control (endpoint: mean survival time, dose: 12.5 mg/kg/injection, schedule: Q01DX009 (ip), vehicle: acetone); 88 % of control (endpoint: mean survival time, dose: 12.5 mg/kg/injection, schedule: Q04DX003 (ip), vehicle: acetone); 93 % of control (endpoint: mean survival time, dose: 25.0 mg/kg/injection, schedule: Q04DX003 (ip), vehicle: acetone).
As to `C=C(C)CS(=O)[O-].[C-]#[O+].[C-]#[O+].[Fe+6].[c-]1[c-][c-][cH-][c-]1`, the T/C (endpoint: mean survival time, dose: 6.25 mg/kg/injection, schedule: Q04DX002 (ip), vehicle: saline) is 97 % of control; the T/C (endpoint: mean survival time, dose: 12.5 mg/kg/injection, schedule: Q04DX002 (ip), vehicle: saline) was 97 % of control; the T/C (endpoint: mean survival time, dose: 25.0 mg/kg/injection, schedule: Q04DX002 (ip), vehicle: saline) was 97 % of control.
Regarding `CN(C)/C=N/N1C(=O)CSC1=S`, the T/C is 107 % of control (endpoint: mean survival time, dose: 25.0 mg/kg/injection, schedule: Q04DX003 (ip), vehicle: saline); 103 % of control (endpoint: mean survival time, dose: 50.0 mg/kg/injection, schedule: Q04DX003 (ip), vehicle: saline); 101 % of control and 103 % of control under setting [11].
For the molecule `OC1C=CC(O)C1` (stereo not given), the T/C under setting [12] is 97 % of control and the T/C under setting [13] was 101 % of control.
`O=NN(CCCl)C(=O)NC1OC(CO)C(O)C(O)C1O` (stereo not given): the T/C reads like this: (endpoint: mean survival time, dose: 2.5 mg/kg/injection, schedule: Q01DX009 (ip), vehicle: saline) 215 % of control; (endpoint: mean survival time, dose: 5.0 mg/kg/injection, schedule: Q01DX009 (ip), vehicle: saline) 176 % of control; (endpoint: mean survival time, dose: 10.0 mg/kg/injection, schedule: Q04DX002 (ip), vehicle: saline) 243 % of control; (endpoint: mean survival time, dose: 20.0 mg/kg/injection, schedule: Q04DX002 (ip), vehicle: saline) 121 % of control; (endpoint: median survival time, dose: 1.8 mg/kg/injection, schedule: Q01DX009 (ip), vehicle: saline) 175 % of control; (endpoint: median survival time, dose: 3.0 mg/kg/injection, schedule: Q01DX009 (ip), vehicle: saline) 175 % of control. The T/C (endpoint: median survival time, dose: 13.89 mg/kg/injection, schedule: Q01DX009 (ip), vehicle: saline) is 96 % of control.
Consider `CCOC(=S)SCCSC`, for which the T/C reads like this: under setting [14], 103 % of control; under setting [15], 98 % of control.
Consider `Nc1ncnc2c1ncn2CCCCCO`, for which the T/C reads like this: under setting [3], 96 % of control; under setting [5], 91 % of control; under setting [7], 91 % of control.
`Cc1nc2ccc(Cl)cc2c(=O)o1`: the T/C was 103 % of control under setting [16]; 96 % of control under setting [4]; 103 % of control under setting [6]; 93 % of control under setting [17]; 96 % of control under setting [8]; 93 % of control under setting [18].
`CCCCCCCCCC/C=C/C1=C(N=[N+]=N)C(=O)c2ccccc2C1=O`: the T/C runs as follows: (endpoint: mean survival time, dose: 100.0 mg/kg/injection, schedule: Q01DX001 (ip), vehicle: other) 92 % of control; (endpoint: mean survival time, dose: 200.0 mg/kg/injection, schedule: Q01DX001 (ip), vehicle: other) 92 % of control; (endpoint: mean survival time, dose: 400.0 mg/kg/injection, schedule: Q01DX001 (ip), vehicle: other) 94 % of control.
As to `ClC1C2c3ccccc3C(C1Cl)[n+]1ccccc12` (stereo not given), the T/C (endpoint: mean survival time, dose: 12.5 mg/kg/injection, schedule: Q04DX003 (ip), vehicle: Klucel (hydroxypropylcellulose) (HPC)) is 93 % of control and the T/C (endpoint: mean survival time, dose: 25.0 mg/kg/injection, schedule: Q04DX003 (ip), vehicle: Klucel (hydroxypropylcellulose) (HPC)) was 98 % of control.
As for `[B-][N+](C)(C)Cc1ccccc1`, the T/C is, setting by setting: under setting [1], 94 % of control; under setting [2], 88 % of control; under setting [3], 101 % of control.
On to `Oc1c(Cl)cc(Cl)cc1CN(Cc1cc(Cl)cc(Cl)c1O)c1ccccc1`, for which the T/C is 103 % of control (endpoint: mean survival time, dose: 12.5 mg/kg/injection, schedule: Q01DX009 (ip), vehicle: Klucel (hydroxypropylcellulose) (HPC)); 102 % of control (endpoint: mean survival time, dose: 25.0 mg/kg/injection, schedule: Q01DX009 (ip), vehicle: Klucel (hydroxypropylcellulose) (HPC)); 101 % of control (endpoint: mean survival time, dose: 50.0 mg/kg/injection, schedule: Q01DX009 (ip), vehicle: Klucel (hydroxypropylcellulose) (HPC)); 100 % of control (endpoint: mean survival time, dose: 100.0 mg/kg/injection, schedule: Q01DX009 (ip), vehicle: Klucel (hydroxypropylcellulose) (HPC)); 100 % of control (endpoint: mean survival time, dose: 200.0 mg/kg/injection, schedule: Q01DX009 (ip), vehicle: Klucel (hydroxypropylcellulose) (HPC)); 94 % of control (endpoint: mean survival time, dose: 400.0 mg/kg/injection, schedule: Q01DX009 (ip), vehicle: Klucel (hydroxypropylcellulose) (HPC)).
With `O=C(OCCCCI)c1ccccc1`, the T/C was 97 % of control under setting [12]; 102 % of control under setting [13]; 97 % of control (endpoint: mean survival time, dose: 300.0 mg/kg/injection, schedule: Q01DX001 (ip), vehicle: saline).
`COc1ccc(COC(=O)Nc2ccc([N+](=O)[O-])cc2)cc1`: the T/C by setting is: under setting [9], 96 % of control; (endpoint: mean survival time, dose: 200.0 mg/kg/injection, schedule: Q04DX002 (ip), vehicle: saline with Tween-80) 96 % of control; under setting [10], 96 % of control.
On to `Brc1ccc(Br)cc1`, for which the T/C runs as follows: under setting [16], 103 % of control; under setting [6], 100 % of control; under setting [8], 97 % of control.
For the molecule `CCCCCOS(=O)(=O)O`, the T/C reads like this: under setting [14], 108 % of control; under setting [15], 120 % of control; (endpoint: mean survival time, dose: 400.0 mg/kg/injection, schedule: Q01DX001 (ip), vehicle: saline) 102 % of control.
Consider `COc1cc(C)ccc1C1=CCCCC1`, for which the T/C was 95 % of control under setting [11]; 95 % of control under setting [19]; 87 % of control (endpoint: mean survival time, dose: 400.0 mg/kg/injection, schedule: Q04DX003 (ip), vehicle: saline).
On to `O=C1c2ccccc2C(=O)c2ccccc21`, for which the T/C was 93 % of control under setting [16]; 87 % of control under setting [4]; 100 % of control under setting [6]; 93 % of control under setting [17]; 94 % of control under setting [8]; 88 % of control under setting [18].
Regarding `CCCCCCC(C)c1cc(C)c(O)c(CN(C)C)c1` (stereo not given), the T/C reads like this: under setting [11], 91 % of control; under setting [19], 95 % of control.
